Source: publication PMC6105804, “In Vitro and In Vivo Evaluation of APX001A/APX001 and Other Gwt1 Inhibitors against Cryptococcus” (Antimicrobial Agents and Chemotherapy, 2018)
≈ marks a conversion by molar mass, not a printed value. Read-outs that look alike come from different tables or passages of the source.

Legend:
C. neoformans [1] = system: C. neoformans; parameters: method as in PMID 15078612; conditions: U.S. isolates; cited from earlier work
C. neoformans [2] = test: Broth microdilution susceptibility testing (CLSI M27-A3); type: cell-based, Cryptococcus neoformans; conditions: for MIC: Cryptococcus neoformans
Excerpt: (§1) C. neoformans strains H99, DUMC 118.00, and DUMC 158.03 and C. gattii strains R272 and RSA-MW-3515 were obtained from Duke University. C. albicans 90028, A. fumigatus MYA3626, C. neoformans 14116, C. neoformans 76484, and the pathogenic Cryptococcus reference strains panel (ATCC MP-11) were obtained from the American Type Culture Collection (ATCC; Manassas, VA, USA). The ATCC MP-11 panel consists of strains representing eight molecular types and three subtypes of C. neoformans and C. gattii.
(§2) To establish the antimicrobial activity of the APX001A analogs, broth microdilution susceptibility testing was performed according to Clinical and Laboratory Standards Institute (CLSI) guidelines M27-A3 ([47]) for yeasts and M38-A2 for molds ([48]). APX001A and analogs were first diluted in DMSO to obtain intermediate dilutions. These were further diluted in microtiter plates to obtain a final concentration of 2 to 0.002 μg/ml. One microliter of DMSO was added to the no-drug control wells. The solutions were mixed on a plate shaker for 10 min, and the plates were incubated at 35°C for 40 to 48 h (C. albicans, A. fumigatus) and 72 h (C. neoformans). The minimum concentration that led to a 50% reduction in fungal growth compared to that for the control (determined with the aid of a reading mirror) was determined as the MIC for C. albicans and C. neoformans. The minimum concentration that led to the shortening of hyphae compared to the hyphal growth in DMSO control wells was determined as the minimum effective concentration (MEC) for A. fumigatus (as read for the echinocandins). The use of the MIC and MEC endpoints for APX001A (formerly E1210) against yeasts and molds, respectively, has been described previously ([19][–][21]). For the cryptococcal synergy studies, APX001A and APX2020 MIC values were read at 50% inhibition.

C. gattii = test: as above; type: cell-based; conditions: Cryptococcus gattii
Excerpt: as §1, §2

C. albicans 90028 = test: as above; type: cell-based, Candida albicans; conditions: Candida albicans, 90028; read-out: MIC, C. albicans 90028
Excerpt: as §1, §2

A. fumigatus MYA3626 = test: Broth microdilution susceptibility testing for molds (CLSI M38-A2); type: cell-based; conditions: Aspergillus fumigatus, MYA3626; read-out: MIC or MEC for A. fumigatus MYA3626
Excerpt: as §1, §2

[3] = system: FLC-susceptible and FLC-nonsusceptible/resistant strains of C. neoformans and C. gattii; test: Broth microdilution, summary over the 18-strain Cryptococcus collection; type: cell-based, Cryptococcus neoformans and Cryptococcus gattii; conditions: for MIC90 / MIC: 18 strains of C. neoformans and C. gattii; for MIC: read-out: Geometric mean MIC
Description: as §2, with “The minimum concentration that led to the shortening of hyphae compared to the hyphal growth in DMSO control wells was determined as the minimum effective concentration (MEC) for A. fumigatus (as read for the echinocandins).” left out

[4] = Single-dose mouse pharmacokinetics of prodrugs with or without ABT; type: in vivo; conditions: for Ratio of AUC with ABT/AUC without ABT, i.p. dosing / Ratio of AUC with ABT/AUC without ABT, p.o. dosing: 26 mg/kg prodrug; for AUC: male, CD-1, mouse, plasma, 26 mg/kg
Description: The area under the curve (AUC) was calculated from time zero to the time of the last measurable concentration. The active metabolite concentrations in plasma (APX001A, APX2039, APX2020, and APX2041) were determined by liquid chromatography-tandem mass spectrometry. PK parameters were determined using Phoenix WinNonlin (v7.0) software and a noncompartmental model.

[5] = 72 h, Table 1, 50% growth inhibition for FLC, caspofungin and APX compounds, 100% for AMB, 72 h, read-out: MIC, C. neoformans H99
[6] = C. neoformans isolate 14116, read-out: MIC
[7] = C. neoformans isolate 76484, read-out: MIC
[8] = C. neoformans isolate DUMC 118.00 (FLC resistant), read-out: MIC
[9] = C. neoformans isolate DUMC 158.03 (FLC resistant), read-out: MIC
[10] = C. neoformans isolate MYA-4564, read-out: MIC
[11] = C. neoformans isolate MYA-4565, read-out: MIC
[12] = C. neoformans isolate MYA-4566, read-out: MIC
[13] = C. neoformans isolate MYA-4567, read-out: MIC
[14] = Table 2, C. neoformans isolate H99, read-out: MIC
[15] = C. gattii isolate MYA-4093, read-out: MIC
[16] = C. gattii isolate MYA-4094, read-out: MIC
[17] = C. gattii isolate MYA-4560 (first listing, r17), read-out: MIC
[18] = C. gattii isolate MYA-4560 (second listing, r21), read-out: MIC
[19] = C. gattii isolate MYA-4561, read-out: MIC
[20] = C. gattii isolate MYA-4562, read-out: MIC
[21] = C. gattii isolate MYA-4563, read-out: MIC
[22] = C. gattii isolate MYA-4877, read-out: MIC
[23] = C. gattii isolate RSA-MW-3615 (FLC resistant), read-out: MIC
[24] = Table 1, 50% growth inhibition for FLC, caspofungin and APX compounds, 100% for AMB, read-out: MIC, C. gattii WM276
[25] = intraperitoneal, AUC of analyte after 26 mg/kg prodrug, 100 mg/kg ABT orally 2 h before, read-out: Avg AUC resulting from 26-mg/kg dose, i.p. dosing + ABT
[26] = ip, AUC of analyte after 26 mg/kg of the corresponding prodrug, male CD-1 mice, no ABT, read-out: Avg AUC resulting from 26-mg/kg dose, i.p. dosing
[27] = po, AUC of analyte after 26 mg/kg prodrug, 100 mg/kg ABT orally 2 h before, read-out: Avg AUC resulting from 26-mg/kg dose, p.o. dosing + ABT
[28] = po, AUC of analyte in plasma after 26 mg/kg of the corresponding prodrug, male CD-1 mice, no ABT, read-out: Avg AUC resulting from 26-mg/kg dose, p.o. dosing

Row | MIC (C. neoformans [2]; [5]) [µg/mL] | MIC (C. neoformans [2]; [6]) [µg/mL] | MIC (C. neoformans [2]; [7]) [µg/mL] | MIC (C. neoformans [2]; [8]) [µg/mL] | MIC (C. neoformans [2]; [9]) [µg/mL] | MIC (C. neoformans [2]; [10]) [µg/mL] | MIC (C. neoformans [2]; [11]) [µg/mL] | MIC (C. neoformans [2]; [12]) [µg/mL] | MIC (C. neoformans [2]; [13]) [µg/mL] | MIC (C. neoformans [2]; [14]) [µg/mL] | MIC (C. gattii; [15]) [µg/mL] | MIC (C. gattii; [16]) [µg/mL] | MIC (C. gattii; [17]) [µg/mL] | MIC (C. gattii; [18]) [µg/mL] | MIC (C. gattii; [19]) [µg/mL] | MIC (C. gattii; [20]) [µg/mL] | MIC (C. gattii; [21]) [µg/mL] | MIC (C. gattii; [22]) [µg/mL] | MIC (C. gattii; [23]) [µg/mL] | MIC (C. gattii; [24]) [µg/mL] | SMILES | also measured
1 | – | – | – | – | – | – | – | – | – | – | – | – | – | – | – | – | – | – | – | – | Nc1[nH]c(=O)ncc1F [flucytosine] | MIC90 (C. neoformans [1]): 8 µg/mL (≈ 62 µM)
2 | 0.008 | 0.004 | 0.004 | 0.016 | 0.031 | 0.004 | 0.031 | 0.008 | 0.016 | 0.004 | 0.016 | 0.016 | 0.008 | 0.008 | 0.016 | 0.016 | 0.016 | 0.008 | 0.004 | 0.004 | Nc1ncccc1-c1cc(Cc2ccc(Oc3cccc(F)n3)cc2)no1 [APX2039] | fold improved anti-C. neoformans H99 activity vs APX001A (C. neoformans [2]; from MIC values of Table 1): 32 fold; MIC (C. albicans 90028): 0.031 µg/mL; MIC (A. fumigatus MYA3626): 0.125 µg/mL; MIC90 [3]: 0.031 µg/mL; MIC [3]: 0.01 µg/mL; fold lower MIC values than APX001A versus Cryptococcus ([3]; Table 1 strains H99 and WM276): 32 fold; Ratio of AUC with ABT/AUC without ABT, i.p. dosing [4]: 8.3; Ratio of AUC with ABT/AUC without ABT, p.o. dosing [4]: 8.6; AUC [4, 25]: 97200 ± 12600 ng·h/mL; AUC [4, 26]: 11800 ± 1830 ng·h/mL; AUC [4, 27]: 91300 ± 20800 ng·h/mL; AUC [4, 28]: 10700 ± 480 ng·h/mL; fold higher exposure than the three other compounds ([4]; oral administration of prodrug with ABT): approximately 2 fold; fold higher AUC than the other compounds ([4]; prodrugs administered i.p.): approximately 2 fold
3 | 0.031 | 0.016 | 0.016 | 0.063 | 0.125 | 0.016 | 0.125 | 0.063 | 0.031 | 0.031 | 0.125 | 0.063 | 0.016 | 0.016 | 0.031 | 0.031 | 0.031 | 0.016 | 0.016 | 0.016 | Nc1ncccc1-c1cc(Cc2ccc(OCc3ccccc3)nc2)no1 [APX2041] | MIC (C. albicans 90028): 0.031 µg/mL; MIC (A. fumigatus MYA3626): 0.016 µg/mL; MIC90 [3]: 0.125 µg/mL; MIC [3]: 0.034 µg/mL; Ratio of AUC with ABT/AUC without ABT, i.p. dosing [4]: 15.5; Ratio of AUC with ABT/AUC without ABT, p.o. dosing [4]: 14.3; AUC [4, 25]: 72600 ± 9070 ng·h/mL; AUC [4, 26]: 4680 ± 730 ng·h/mL; AUC [4, 27]: 49900 ± 10300 ng·h/mL; AUC [4, 28]: 3490 ± 270 ng·h/mL
